Measured values published in article PMC5458547, “Discovery of first-in-class reversible dual small molecule inhibitors against G9a and DNMTs in hematological malignancies” (Nature Communications, 2017).

Experiments:
[1] = tested on: RIVA; test: Cell proliferation assay (MTS); assay type: cell-based; conditions: Homo sapiens; ABC-DLBCL, 48 h
[2] = target: T1, CDK11 (Homo sapiens, UniProt Q9BWU1); test: KINOMEscan kinase profiling; assay type: binding; conditions: read-out: Percent Control
T1 construct: purchased DiscoverX KINOMEscan (kinases); BPS Bioscience (epigenetic targets)
Description: precipitate the proteins. The mixture was then agitated for 5 min and centrifuged at 13200 rpm for 10 min at 4 °C. A 5 µL aliquot of the resulting supernatant was injected onto the LC-MS/MS system for analysis.
Frozen plasma samples were thawed at room temperature, vortexed thoroughly and subjected to the above described extraction procedure.
The pharmacokinetic parameters were obtained by fitting the blood concentration-time data to a non-compartmental model with the WinNonlin software (Pharsight, Mountain View, CA). […]
concentration-time profile for a dosing regimen of 2.5 mg/kg administered intravenously every 24 h for 3 weeks was simulated with Winnonlin.
Kinase Selectivity Profiling
(out of which 90 are non-mutant kinases) was performed at DiscoverRx (http://www.discoverx.com/home) using the KINOMEscan™ screening platform at a test concentration of 10 µM. Results for primary screen […]
positive control signal) / (negative control signal – positive control signal) *100, where negative control corresponds to DMSO treatment (100%) and positive control to the signal obtained with a control competitive compound (0%). […]
using the Hill equation. […]
MicroScale Thermophoresis (MST) was performed to quantify biomolecular interactions between CM-579 and DNMT1 (full length). […]
Cell proliferation was analyzed using the CellTiter 96 Aqueous One Solution Cell Proliferation Assay (Promega, Madison, W). […]

[3] = tested on: NP18; test: Cell proliferation assay (MTS); assay type: cell-based; conditions: Homo sapiens; Pancreas
[4] = tested on: HT; test: Cell proliferation assay (MTS); assay type: cell-based; conditions: Homo sapiens, GC-DLBCL, 48 h
[5] = target: T2, PDGFRB (Homo sapiens, UniProt P09619); test: KINOMEscan kinase profiling; assay type: binding; conditions: read-out: Percent Control
T2 construct: purchased DiscoverX KINOMEscan (kinases); BPS Bioscience (epigenetic targets)
Summary of the method: (§1)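 Signal is reported as percent of control, scaled between DMSO treatment (100%) and a control competitive compound (0%). Compound was tested at 10 µM in the KINOMEscan screening platform.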

[6] = target: T3, ALK (Homo sapiens, UniProt Q9UM73); test: KINOMEscan kinase profiling; assay type: binding
T3 construct: purchased DiscoverRx (KINOMEscan contract screen)
Summary of the method: as §1

[7] = tested on: SU-DHL-7; test: Cell proliferation assay (MTS); assay type: cell-based; conditions: Homo sapiens; GC-DLBCL, 48 h
[8] = tested on: Mia Paca-2; test: Cell proliferation assay (MTS); assay type: cell-based; conditions: Homo sapiens, Pancreas
[9] = tested on: CEMO-1 cells; test: ALL CEMO-1 xenograft survival; assay type: in vivo, mice; conditions: 1 mg/kg i.v. daily for 28 days
Description: Statistical results were calculated using the statistical software medcalc.
270 nM for MV4-11 cell line and 200 and 400 nM for OCI-Ly10). Extracellular HMGB1 from 48 h cell culture supernatants was quantified by means of the HMGB1 ELISA Kit II (Shino Test Corp.), following the manufacturer's instructions.
All animal studies had previous approval from the Animal Care and Ethics Committee of the University of Navarra, whereas experiments that used patient samples were approved by the Human Research Ethics Committees of University of Navarra.
The human ALL CEMO-1 xenograft mice model was generated by intravenously (i.v.) injection of 10x10^6 cells diluted in 100 µL of saline solution in the tail vein of a 6-8-week-old female BALB/cA- Rag2-/-γc-/- mice (n=12). Three days after injection, antitumor treatment was started intravenously in 6 mice. 1 mg/kg […]
The control group (n=6) received only
The mice weight was controlled and stable during the treatment.
Statistical results were calculated using the statistical software medcalc. […]
consecutive days. […] Statistical results were calculated using the statistical software medcalc. […]
The control group (n=6) received only saline solution. […] Statistical results were calculated using the statistical software medcalc. […]
washout period, hematological and liver parameters were measured. […]
washout period hematological and liver parameters were measured. […]

[10] = tested on: LAL-CUN-13; test: Cell proliferation assay (MTS); assay type: cell-based; conditions: Homo sapiens; ALL, 48 h

T3 sequence (Q9UM73 19-1620): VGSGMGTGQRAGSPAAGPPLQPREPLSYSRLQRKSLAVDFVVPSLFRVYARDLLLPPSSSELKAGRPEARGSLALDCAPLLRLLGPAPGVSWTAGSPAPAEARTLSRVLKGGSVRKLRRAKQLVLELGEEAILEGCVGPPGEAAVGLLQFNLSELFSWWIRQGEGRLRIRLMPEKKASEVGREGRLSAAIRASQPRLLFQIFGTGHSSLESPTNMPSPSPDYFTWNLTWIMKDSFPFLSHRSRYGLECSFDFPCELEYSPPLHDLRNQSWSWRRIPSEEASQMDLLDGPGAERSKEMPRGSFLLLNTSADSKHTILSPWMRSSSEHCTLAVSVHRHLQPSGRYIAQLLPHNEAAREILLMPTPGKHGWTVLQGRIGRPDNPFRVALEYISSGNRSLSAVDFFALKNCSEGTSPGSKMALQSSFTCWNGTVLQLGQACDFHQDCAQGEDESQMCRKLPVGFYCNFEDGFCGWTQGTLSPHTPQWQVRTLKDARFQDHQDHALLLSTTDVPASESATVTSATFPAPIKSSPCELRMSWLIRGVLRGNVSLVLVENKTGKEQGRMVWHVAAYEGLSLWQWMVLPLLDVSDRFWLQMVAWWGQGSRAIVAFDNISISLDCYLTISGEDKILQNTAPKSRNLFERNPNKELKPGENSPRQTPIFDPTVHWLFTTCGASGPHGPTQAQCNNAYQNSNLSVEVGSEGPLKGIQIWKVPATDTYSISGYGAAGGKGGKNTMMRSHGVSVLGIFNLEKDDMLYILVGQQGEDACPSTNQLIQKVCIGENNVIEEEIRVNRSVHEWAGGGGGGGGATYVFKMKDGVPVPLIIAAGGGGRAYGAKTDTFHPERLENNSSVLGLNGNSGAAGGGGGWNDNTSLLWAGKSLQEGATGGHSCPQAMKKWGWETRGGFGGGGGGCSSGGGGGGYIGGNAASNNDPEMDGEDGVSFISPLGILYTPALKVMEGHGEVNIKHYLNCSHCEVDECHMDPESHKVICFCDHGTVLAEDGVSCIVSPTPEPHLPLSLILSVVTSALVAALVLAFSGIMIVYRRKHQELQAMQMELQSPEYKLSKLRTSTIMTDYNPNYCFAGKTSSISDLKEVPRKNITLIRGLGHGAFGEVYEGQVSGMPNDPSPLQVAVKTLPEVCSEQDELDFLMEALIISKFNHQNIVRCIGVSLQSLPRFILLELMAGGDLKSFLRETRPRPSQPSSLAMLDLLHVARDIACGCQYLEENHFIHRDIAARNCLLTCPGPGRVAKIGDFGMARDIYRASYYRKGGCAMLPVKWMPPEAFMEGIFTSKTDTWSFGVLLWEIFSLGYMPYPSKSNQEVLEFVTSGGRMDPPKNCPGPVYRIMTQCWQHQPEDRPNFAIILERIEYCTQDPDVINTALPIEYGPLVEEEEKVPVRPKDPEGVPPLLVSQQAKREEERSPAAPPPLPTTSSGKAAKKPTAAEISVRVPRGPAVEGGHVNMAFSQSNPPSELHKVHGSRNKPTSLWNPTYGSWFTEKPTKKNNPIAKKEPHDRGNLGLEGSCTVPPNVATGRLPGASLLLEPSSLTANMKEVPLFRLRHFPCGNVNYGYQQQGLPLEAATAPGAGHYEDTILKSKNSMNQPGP
T1 sequence (Q9BWU1 whole entry): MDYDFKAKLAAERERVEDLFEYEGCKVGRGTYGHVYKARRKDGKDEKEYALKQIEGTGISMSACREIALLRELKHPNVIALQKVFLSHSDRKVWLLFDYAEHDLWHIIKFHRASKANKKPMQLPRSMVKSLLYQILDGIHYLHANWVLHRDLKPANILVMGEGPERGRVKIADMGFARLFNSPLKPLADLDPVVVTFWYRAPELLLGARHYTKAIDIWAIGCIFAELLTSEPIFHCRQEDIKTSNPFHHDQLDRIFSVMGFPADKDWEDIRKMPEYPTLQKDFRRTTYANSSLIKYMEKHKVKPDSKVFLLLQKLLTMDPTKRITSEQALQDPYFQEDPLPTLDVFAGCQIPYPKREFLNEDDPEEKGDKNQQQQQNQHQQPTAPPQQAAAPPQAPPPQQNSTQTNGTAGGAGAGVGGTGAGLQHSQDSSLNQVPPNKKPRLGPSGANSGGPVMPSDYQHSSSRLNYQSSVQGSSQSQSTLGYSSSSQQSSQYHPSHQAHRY
T2 sequence (P09619 33-1106): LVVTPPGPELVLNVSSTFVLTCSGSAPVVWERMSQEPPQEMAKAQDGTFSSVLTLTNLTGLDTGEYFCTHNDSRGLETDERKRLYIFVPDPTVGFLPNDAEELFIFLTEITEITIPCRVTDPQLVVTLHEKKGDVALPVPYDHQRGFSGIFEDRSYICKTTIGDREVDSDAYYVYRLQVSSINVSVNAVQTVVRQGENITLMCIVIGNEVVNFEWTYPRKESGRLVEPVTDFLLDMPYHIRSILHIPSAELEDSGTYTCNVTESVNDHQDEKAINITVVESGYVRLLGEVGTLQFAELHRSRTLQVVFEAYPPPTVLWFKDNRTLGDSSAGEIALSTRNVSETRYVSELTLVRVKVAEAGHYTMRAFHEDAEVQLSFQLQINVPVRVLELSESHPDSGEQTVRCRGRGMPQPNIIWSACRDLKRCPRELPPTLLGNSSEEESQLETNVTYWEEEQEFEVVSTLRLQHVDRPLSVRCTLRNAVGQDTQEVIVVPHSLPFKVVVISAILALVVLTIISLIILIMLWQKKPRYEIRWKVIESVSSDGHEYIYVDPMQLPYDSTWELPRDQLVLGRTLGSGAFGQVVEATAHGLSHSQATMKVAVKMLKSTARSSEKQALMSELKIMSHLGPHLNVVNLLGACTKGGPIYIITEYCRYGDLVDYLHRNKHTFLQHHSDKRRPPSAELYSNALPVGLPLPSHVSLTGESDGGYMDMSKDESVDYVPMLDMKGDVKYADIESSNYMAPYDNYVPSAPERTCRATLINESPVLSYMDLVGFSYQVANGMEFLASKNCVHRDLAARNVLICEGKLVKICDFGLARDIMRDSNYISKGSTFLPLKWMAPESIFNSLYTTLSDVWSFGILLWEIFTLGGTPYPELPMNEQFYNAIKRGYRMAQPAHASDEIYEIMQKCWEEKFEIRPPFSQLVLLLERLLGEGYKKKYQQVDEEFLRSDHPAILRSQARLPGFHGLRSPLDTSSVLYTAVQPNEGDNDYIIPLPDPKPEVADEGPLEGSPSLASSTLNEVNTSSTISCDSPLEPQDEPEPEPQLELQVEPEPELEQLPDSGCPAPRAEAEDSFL

Compound: COc1cc2c(NC3CCN(C)CC3)cc(-c3ccc(C)o3)nc2cc1OCCCN1CCCC1 [CM-272, 6-methoxy-2-(5-methyl-2-furyl)-N-(1-methyl-4-piperidyl)-7-(3-pyrrolidin-1-ylpropoxy)quinolin-4-amine]
- GI50 [1]: 1570 nM
- remaining binding at 10 µM [2]: 88%
- GI50 [3]: 577 nM
- GI50 [4]: 1170 nM
- remaining binding at 10 µM [5]: 100%
- remaining binding at 10 µM ([6]; 10 µM, read-out: Percent Control): 0.5%
- Kd ([6]; KINOMEscan): 820 nM
- GI50 [7]: 636 nM
- GI50 [8]: 206 nM
- survival [9]: not able to prolong survival
- GI50 [10]: 1400 nM
